Results on 11 compounds are retold here after patent publication US20260083865A1, “PROSTATE SPECIFIC MEMBRANE ANTIGEN (PSMA) LIGANDS AND USE THEREOF” (priority 2022, published 2026).

Numbered stars: 1 amine (or outer) side, 2 acyl side, 3 side chain; on linkers, the order of the positions; unused ones are H or OH. Bridge positions count the residues as written; N and C are the ends. Square brackets hold non-standard residues; d marks the D form. Peptide text beside a SMILES is read from it. * marks the point of attachment. Acetyl(1-DOTA-4-piperidyl) = O=C(O)CN1CCN(CC(=O)O)CCN(CC(=O)N2CCC(CC(=O)*)CC2)CCN(CC(=O)O)CC1; DOTA = O=C(O)CN1CCN(CC(=O)O)CCN(CC(=O)*)CCN(CC(=O)O)CC1; Phe(4-Cl) = N[C@@H](Cc1ccc(Cl)cc1)C(=O)O; X1 = O=C(CC1CCN([*:1])CC1)[*:2]; NMeK = CN[C@@H](CCCCN)C(=O)O; Tle = CC(C)(C)[C@H](N)C(=O)O; Isovaleryl = CC(C)CC(=O)*; 4Abz = Nc1ccc(C(=O)O)cc1; Aib = CC(C)(N)C(=O)O; CO = O=C([*:1])[*:2]; Bn = c1ccc(C*)cc1; NHBu = CCCCN* Bounds are passed on as bounds.

Assay [1] has as its target T1, PSMA-expressing C4-2 cells (Homo sapiens, UniProt Q04609).
T1 construct: PSMA-expressing C4-2 cells (ATCC, Cat. No. CRL-3314) were cultured in RPMI-1640; host or cells: C4-2 cells
Briefly: FACS binding assay (competition with 50 nM PSM-0183). The note with it: pIC50 category of FACS binding, C4-2 cells; read-out: pIC50 [C4-2] CAT (converted). The method, boiled down:
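Competition format: fluorescent tracer PSM-0183 (50 nM) displaced from PSMA on C4-2 cells by a test compound titration over 1 h at 4 °C. Bound tracer was quantified as flow-cytometric AF488 median fluorescence after washing. Four-parameter logistic fits of MFI data gave IC50 and pIC50.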

Assay [2] concerns the target T2, Fc-fusion protein of human PSMA (hPSMA-Fc) (Homo sapiens, UniProt Q04609).
T2 construct: purchased Acro Biosystems PSA-H5264
Nature of the assay: Surface plasmon resonance assay (Biacore T200, single cycle kinetic). The class given is binding. The note with it: pKD category for PSMA SPR activity assay, hPSMA-Fc, 25° C.; read-out: pKD CAT (converted). In a few lines: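 KD, expressed as pKD, came from 1:1 Langmuir fits of reference- and buffer-blank-subtracted SPR data. The runs were single-cycle kinetics at 25° C in HBST/0.1% DMSO over human PSMA-Fc, captured to ~1000 RU on a peptide-coated CM5 surface and regenerated with 10 mM glycine pH 1.5.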
(Surface plasmon resonance follows binding to a sensor surface in real time, without labels.)

T2 sequence (Q04609 44-750 limits assumed): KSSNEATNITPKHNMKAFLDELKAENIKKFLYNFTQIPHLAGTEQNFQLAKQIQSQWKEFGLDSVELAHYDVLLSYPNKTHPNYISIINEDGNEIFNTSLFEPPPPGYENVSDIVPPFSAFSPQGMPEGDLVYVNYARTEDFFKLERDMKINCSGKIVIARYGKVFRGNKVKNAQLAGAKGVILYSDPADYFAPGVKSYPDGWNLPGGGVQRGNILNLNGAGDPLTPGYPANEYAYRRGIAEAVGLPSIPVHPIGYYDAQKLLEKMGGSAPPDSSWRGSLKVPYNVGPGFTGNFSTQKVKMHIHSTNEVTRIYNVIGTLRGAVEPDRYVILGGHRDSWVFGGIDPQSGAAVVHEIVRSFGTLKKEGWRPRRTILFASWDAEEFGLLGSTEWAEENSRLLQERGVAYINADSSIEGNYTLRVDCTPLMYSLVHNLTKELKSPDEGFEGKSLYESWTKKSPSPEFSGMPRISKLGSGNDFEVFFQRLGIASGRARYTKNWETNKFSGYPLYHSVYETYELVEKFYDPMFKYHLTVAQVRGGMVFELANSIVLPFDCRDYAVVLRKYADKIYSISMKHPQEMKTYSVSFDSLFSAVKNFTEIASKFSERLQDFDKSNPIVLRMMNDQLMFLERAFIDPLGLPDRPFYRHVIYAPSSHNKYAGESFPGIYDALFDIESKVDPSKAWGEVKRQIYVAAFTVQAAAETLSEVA
T1 sequence (Q04609 whole entry): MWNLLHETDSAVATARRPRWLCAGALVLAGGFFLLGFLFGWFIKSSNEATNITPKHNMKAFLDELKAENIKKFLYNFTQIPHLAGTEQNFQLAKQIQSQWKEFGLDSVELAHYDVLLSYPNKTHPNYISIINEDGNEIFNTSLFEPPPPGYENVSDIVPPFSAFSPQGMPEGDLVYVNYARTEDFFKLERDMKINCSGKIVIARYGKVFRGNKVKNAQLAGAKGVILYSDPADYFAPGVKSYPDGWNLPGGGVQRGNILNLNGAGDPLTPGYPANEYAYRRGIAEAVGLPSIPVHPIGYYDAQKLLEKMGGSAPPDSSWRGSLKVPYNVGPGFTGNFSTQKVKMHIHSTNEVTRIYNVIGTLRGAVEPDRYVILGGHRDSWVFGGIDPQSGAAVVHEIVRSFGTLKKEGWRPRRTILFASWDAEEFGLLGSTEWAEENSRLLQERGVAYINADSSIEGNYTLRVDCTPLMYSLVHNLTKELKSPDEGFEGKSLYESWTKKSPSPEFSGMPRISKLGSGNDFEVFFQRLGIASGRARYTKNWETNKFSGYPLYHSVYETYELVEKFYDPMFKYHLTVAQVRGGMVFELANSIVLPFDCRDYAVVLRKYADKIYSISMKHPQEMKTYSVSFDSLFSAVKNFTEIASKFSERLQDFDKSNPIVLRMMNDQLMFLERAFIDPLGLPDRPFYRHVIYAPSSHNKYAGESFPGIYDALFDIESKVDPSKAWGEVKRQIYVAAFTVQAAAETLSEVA

Turning to `CC(=O)N[C@H](C(=O)NC(C)(C)C(=O)N[C@@H](CSCc1ccccc1)C(=O)N[C@H]1CSSC[C@@H](C(=O)N[C@H](C(=O)N[C@H](C(N)=O)[C@@H](C)O)C(C)(C)C)NC(=O)[C@H](CC(N)=O)NC(=O)C(C)(C)NC(=O)[C@H](CCCNC(=N)N)NC(=O)[C@H](CCCCN)NC1=O)[C@@H](C)O` [PSM-0441, Ac-Thr-Aib-Cys(Bzl)-[Cys-Lys-Arg-Aib-Asn-Cys]-Tle-Thr-NH2] (Ac-T[Aib]C(Bn)CKR[Aib]NC[Tle]T-NH2; disulfide 4-9), the IC50 in assay [1] was under 200 nM. The Kd in assay [2] is 12.6 to 126 nM.
In the case of `CC(=O)NC(C)(C)C(=O)N[C@@H](Cc1ccccc1)C(=O)N[C@H]1CSSC[C@@H](C(=O)N[C@H](C(=O)N[C@H](C(=O)N[C@@H](CC(=O)O)C(N)=O)[C@@H](C)O)C(C)(C)C)NC(=O)[C@H](CC(N)=O)NC(=O)C(C)(C)NC(=O)[C@H](CCCNC(=N)N)NC(=O)[C@H](CCCCN)NC1=O` [PSM-0442, Ac-Aib-Phe-[Cys-Lys-Arg-Aib-Asn-Cys]-Tle-Thr-Asp-NH2] (Ac-[Aib]FCKR[Aib]NC[Tle]TD-NH2; disulfide 3-8), in assay [1], the IC50 is under 200 nM. Besides, the Kd in assay [2] is under 12.6 nM.
For `CC(=O)NC(C)(C)C(=O)N[C@@H](Cc1ccc(Cl)cc1)C(=O)N[C@H]1CSSC[C@@H](C(N)=O)NC(=O)[C@H](CC(N)=O)NC(=O)C(C)(C)NC(=O)[C@H](CCCNC(=N)N)NC(=O)[C@H](CCCCN)NC1=O` [PSM-0443, Ac-Aib-Pcf-[Cys-Lys-Arg-Aib-Asn-Cys]-NH2] (Ac-[Aib][Phe(4-Cl)]CKR[Aib]NC-NH2; disulfide 3-8), in that order: 200 to 1260 nM and over 501 nM.
The like results for `CC(C)CC(=O)NC(C)(C)C(=O)N[C@@H](Cc1ccc(Cl)cc1)C(=O)N[C@H]1CSSC[C@@H](C(=O)N[C@H](C(=O)N[C@H](C(=O)N[C@H](CCCCNC(=O)CN2CCN(CC(=O)O)CCN(CC(=O)O)CCN(CC(=O)O)CC2)C(N)=O)[C@@H](C)O)C(C)(C)C)NC(=O)[C@H](CC(N)=O)NC(=O)C(C)(C)NC(=O)[C@H](CCCNC(=N)N)NC(=O)[C@H](CCCCN)NC1=O` [PSM-0444, Iva-Aib-Pcf-[Cys-Lys-Arg-Aib-Asn-Cys]-Tle-Thr-lys(DOTA)-NH2] (Isovaleryl-[Aib][Phe(4-Cl)]CKR[Aib]NC[Tle]T[dK](DOTA)-NH2; disulfide 3-8) were, in that order, under 200 nM and under 12.6 nM.
For `C[C@@H](O)[C@H](NC(=O)[C@@H](NC(=O)[C@@H]1CSSC[C@H](NC(=O)[C@H](Cc2ccc(Cl)cc2)NC(=O)C(C)(C)NC(=O)[C@@H](NC(=O)CC2CCN(C(=O)CN3CCN(CC(=O)O)CCN(CC(=O)O)CCN(CC(=O)O)CC3)CC2)[C@@H](C)O)C(=O)N[C@@H](CCCCN)C(=O)N[C@@H](CCCNC(=N)N)C(=O)NC(C)(C)C(=O)N[C@@H](CC(N)=O)C(=O)N1)C(C)(C)C)C(N)=O` [PSM-0445, DOTA-Cmp-Thr-Aib-Pcf-[Cys-Lys-Arg-Aib-Asn-Cys]-Tle-Thr-NH2] ({DOTA}-[X1]T[Aib][Phe(4-Cl)]CKR[Aib]NC[Tle]T-NH2; disulfide 5-10), in that order: under 200 nM and under 12.6 nM.
For the compound `C[C@@H](O)[C@H](NC(=O)[C@@H](NC(=O)[C@@H]1CSSC[C@H](NC(=O)[C@H](Cc2ccccc2)NC(=O)C(C)(C)NC(=O)CN2CCN(CC(=O)O)CCN(CC(=O)O)CCN(CC(=O)O)CC2)C(=O)N[C@@H](CCCCN)C(=O)N[C@@H](CCCNC(=N)N)C(=O)NC(C)(C)C(=O)N[C@@H](CC(N)=O)C(=O)N1)C(C)(C)C)C(N)=O` [PSM-0447, DOTA-Aib-Phe-[Cys-Lys-Arg-Aib-Asn-Cys]-Tle-Thr-NH2] ({DOTA}-[Aib]FCKR[Aib]NC[Tle]T-NH2; disulfide 3-8), in assay [1], the IC50 is over 3160 nM. Moreover, the Kd in assay [2] was over 501 nM.
For `C[C@@H](O)[C@H](NC(=O)[C@@H](NC(=O)[C@@H]1CSSC[C@H](NC(=O)[C@H](Cc2ccccc2)NC(=O)C(C)(C)NC(=O)[C@@H](NC(=O)c2ccc(NC(=O)CN3CCN(CC(=O)O)CCN(CC(=O)O)CCN(CC(=O)O)CC3)cc2)[C@@H](C)O)C(=O)N[C@@H](CCCCN)C(=O)N[C@@H](CCCNC(=N)N)C(=O)NC(C)(C)C(=O)N[C@@H](CC(N)=O)C(=O)N1)C(C)(C)C)C(N)=O` [PSM-0448, DOTA-Pab-Thr-Aib-Phe-[Cys-Lys-Arg-Aib-Asn-Cys]-Tle-Thr-NH2] ({DOTA-4Abz}-T[Aib]FCKR[Aib]NC[Tle]T-NH2; disulfide 4-9), in that order: under 200 nM and under 12.6 nM.
Regarding `CC(C)CC(=O)NC(C)(C)C(=O)N[C@@H](Cc1ccccc1)C(=O)N[C@H]1CSSC[C@@H](C(=O)N[C@H](C(=O)N[C@H](C(N)=O)[C@@H](C)O)C(C)(C)C)NC(=O)[C@H](CC(N)=O)NC(=O)C(C)(C)NC(=O)[C@H](CCCNC(=N)N)NC(=O)[C@H](CCCCN)NC1=O` [PSM-0450, Iva-Aib-Phe-[Cys-Lys-Arg-Aib-Asn-Cys]-Tle-Thr-NH2] (Isovaleryl-[Aib]FCKR[Aib]NC[Tle]T-NH2; disulfide 3-8), in assay [1], the IC50 is under 200 nM. In assay [2], the Kd was under 12.6 nM.
With `CC(=O)N[C@H](C(=O)NC(C)(C)C(=O)N[C@@H](Cc1ccccc1)C(=O)N[C@H]1CSSC[C@@H](C(=O)N[C@H](C(=O)N[C@H](C(N)=O)[C@@H](C)O)C(C)(C)C)NC(=O)[C@H](CC(N)=O)NC(=O)C(C)(C)NC(=O)[C@H](CCCNC(=N)N)NC(=O)[C@H](CCCCN)N(C)C1=O)[C@@H](C)O` [PSM-0451, Ac-Thr-Aib-Phe-[Cys-Nmk-Arg-Aib-Asn-Cys]-Tle-Thr-NH2] (Ac-T[Aib]FC[NMeK]R[Aib]NC[Tle]T-NH2; disulfide 4-9), the IC50 in assay [1] was 200 to 1260 nM. Also, the Kd in assay [2] was 12.6 to 126 nM.
The like results for `CCCCNC(=O)N[C@H](C(=O)NC(C)(C)C(=O)N[C@@H](Cc1ccc(Cl)cc1)C(=O)N[C@H]1CSSC[C@@H](C(=O)N[C@H](C(=O)N[C@H](C(=O)N[C@H](CCCCNC(=O)CC2CCN(C(=O)CN3CCN(CC(=O)O)CCN(CC(=O)O)CCN(CC(=O)O)CC3)CC2)C(N)=O)[C@@H](C)O)C(C)(C)C)NC(=O)[C@H](CC(N)=O)NC(=O)C(C)(C)NC(=O)[C@H](CCCNC(=N)N)NC(=O)[C@H](CCCCN)NC1=O)[C@@H](C)O` [PSM-0452, nBuCAyl-Thr-Aib-Pcf-[Cys-Lys-Arg-Aib-Asn-Cys]-Tle-Thr-lys (DOTA-Cmp)-NH2] ({NHBu-CO}-T[Aib][Phe(4-Cl)]CKR[Aib]NC[Tle]T[dK](Acetyl(1-DOTA-4-piperidyl))-NH2; disulfide 4-9) were, in that order, under 200 nM and under 12.6 nM.
Consider `CC(=O)N[C@H](C(=O)NC(C)(C)C(=O)N[C@@H](Cc1ccccc1)C(=O)N[C@H]1CSSC[C@@H](C(=O)N[C@H](C(=O)N[C@@H](CC(C)C)C(N)=O)C(C)(C)C)NC(=O)[C@H](CC(N)=O)NC(=O)C(C)(C)NC(=O)[C@H](CCCNC(=N)N)NC(=O)[C@H](CCCCN)NC1=O)[C@@H](C)O` [PSM-0453, Ac-Thr-Aib-Phe-[Cys-Lys-Arg-Aib-Asn-Cys]-Tle-Leu-NH2] (Ac-T[Aib]FCKR[Aib]NC[Tle]L-NH2; disulfide 4-9), for which the IC50 in assay [1] is under 200 nM. Further, the Kd in assay [2] is under 12.6 nM.
